Measurements published in article PMC8097418, “In Vitro and In Vivo Antibacterial Activities of a Novel Quinolone Compound, OPS-2071, against Clostridioides difficile” (Antimicrobial Agents and Chemotherapy, 2021).
≈ marks a conversion by molar mass, not a printed value. Like-named read-outs stand apart in the source and are kept apart here.

Experiments:
C. difficile ATCC 700057 [1] = format: cell-based, Clostridioides difficile
C. difficile ATCC 700057 [2] = assay: Effect of pH on MIC (agar dilution); format: cell-based, Clostridioides difficile; details: Clostridioides difficile
C. difficile ATCC 700057 [3] = assay: MIC by broth dilution (GAM broth); format: cell-based, Clostridioides difficile; details: Clostridioides difficile, read-out: MIC
Procedure: (§1) MICs obtained using the agar dilution method were determined visually as described for the CLSI method ([41], [42]). MICs obtained using the broth dilution method were determined visually based on the CLSI method except for using Gifu anaerobic medium (GAM) broth instead of supplemented Brucella broth ([41], [42]).

C. difficile ATCC 43255 [4] = assay: MIC against the infection strain; format: cell-based, Clostridioides difficile
[5] = system: hypervirulent and nonhypervirulent strains of C. difficile (62 strains); assay: MIC distribution against 20 hypervirulent and 42 nonhypervirulent strains; format: cell-based, Clostridioides difficile; details: for MIC90 / MIC50: Clostridioides difficile
C. difficile ATCC 700057 [6] = assay: Mutant prevention concentration; format: cell-based, Clostridioides difficile; details: approximately 10^10 CFU, 3 days
Procedure: The mutant prevention concentration was measured by plating approximately 10^10 CFU of C. difficile ATCC 700057 onto a GAM agar plate containing the test agent. Inoculated plates were incubated for 3 days, and the MIC for each antibiotic that prevented the growth of colonies was determined using the agar dilution method as described by the CLSI ([41]). The MIC values of grown colonies were compared to determine which bacteria were resistant. The MPC was defined as the lowest concentration that prevented the growth of resistant bacteria.

C. difficile ATCC 700057 [7] = assay: MIC by agar dilution (CLSI) against quality control strain; format: cell-based, Clostridioides difficile; details: Clostridioides difficile, read-out: MIC
Procedure: as §1

C. difficile ATCC 700057 [8] = assay: Postantibiotic effect (PAE); format: cell-based, Clostridioides difficile; details: for Postantibiotic effect: 1 h exposure
Procedure: C. difficile ATCC 700057 was cultured in GAM agar and adjusted in GAM broth to approximately 10^6 CFU/ml. The bacterial suspensions were preincubated at 37°C for 1 h. […] After preincubation, test and reference solutions were added to each bacterial suspension in a test tube, and the suspensions were cultured for 1 h. After exposure to the test compounds, bacterial suspensions were washed with GAM broth and cultured for 6 h. […] The PAE was defined according to Craig and Gudmundsson as PAE = T − C, where T is the time required for the viable counts of the exposed bacteria to increase by 1 log10 above the counts observed immediately after washing, and C is the corresponding time for the antibiotic unexposed controls ([44]).

[9] = system: 10 clinical isolates of C. difficile; assay: MIC (broth dilution) and MBC testing, 10 clinical isolates; format: cell-based, Clostridioides difficile; details: 10 clinical isolates
Procedure: In this test, MIC testing was performed using the broth dilution method as recommended in the CLSI ([41]). After the MICs were determined, 10 μl of the bacterial suspension from the MIC test tube was inoculated onto agar plates and incubated at 37°C. The bacterial colonies were then counted and bacterial numbers were calculated. The MBC was considered to be the lowest concentration of the antibiotics that prevented growth and reduced the inoculum by >99.9% within 48 h, irrespective of counts of survivors at higher antibiotic concentrations.

[10] = system: 54 clinically isolated C. difficile strains; assay: MIC by agar dilution against 54 clinically isolated strains; format: cell-based, Clostridioides difficile; details: for MIC90 / MIC50: Clostridioides difficile, 54 clinically isolated C. difficile strains; for MIC50: read-out: MIC50
Procedure: as §1

C. difficile ATCC 43255 [11] = assay: In vivo hamster model of C. difficile infection; design: species or system golden Syrian hamsters
Procedure: C. difficile ATCC 43255 was cultured on GAM agar, and a bacterial suspension was prepared in saline ([26]). […] Hamsters were infected using oral gavage with 0.5 ml of suspension containing approximately 10^6 CFU of C. difficile (day −1). The next day, the animals were administered clindamycin phosphate (0.2 mg/ml in water) by oral gavage at a dose of 5 ml/kg of body weight, for a final dose of 1 mg/kg (day 0). The animals were allocated to the test groups using a stratified randomization method based on the body weight of each infected animal. The test compounds were administered by oral gavage once daily for 5 days (OPS-2071, 0.008 to 1 mg/kg; fidaxomicin, 0.04 mg/kg to 5 mg/kg; vancomycin, 0.04 to 5 mg/kg [5-fold dilution]). Infected control animals were administered 5% (wt/vol) gum arabic solution by oral gavage. […] The cecal contents of dead animals were tested for toxin A and toxin B using C.Diff Quik Chek Complete (Abbott Diagnostics Medical Co., Ltd., Tokyo, Japan) to confirm that the death of the animal was due to CDI.
The statistical significance of OPS-2071, fidaxomicin, and vancomycin treatment was analyzed at all doses against vehicle. Survival curves were estimated for each group using the Kaplan-Meier method. Differences in survival homogeneity in each group were evaluated with a log-rank test with Dunnett-type (two-sided) comparison.

[12] = plasma concentrations in the low nanogram per milliliter range or lower; cited from earlier work
[13] = target: DNA gyrase of C. difficile (Clostridioides difficile, UniProt Q18C89+Q18C90); assay: biochemical
Sequence of DNA gyrase of C. difficile (Q18C90 entry or part of it): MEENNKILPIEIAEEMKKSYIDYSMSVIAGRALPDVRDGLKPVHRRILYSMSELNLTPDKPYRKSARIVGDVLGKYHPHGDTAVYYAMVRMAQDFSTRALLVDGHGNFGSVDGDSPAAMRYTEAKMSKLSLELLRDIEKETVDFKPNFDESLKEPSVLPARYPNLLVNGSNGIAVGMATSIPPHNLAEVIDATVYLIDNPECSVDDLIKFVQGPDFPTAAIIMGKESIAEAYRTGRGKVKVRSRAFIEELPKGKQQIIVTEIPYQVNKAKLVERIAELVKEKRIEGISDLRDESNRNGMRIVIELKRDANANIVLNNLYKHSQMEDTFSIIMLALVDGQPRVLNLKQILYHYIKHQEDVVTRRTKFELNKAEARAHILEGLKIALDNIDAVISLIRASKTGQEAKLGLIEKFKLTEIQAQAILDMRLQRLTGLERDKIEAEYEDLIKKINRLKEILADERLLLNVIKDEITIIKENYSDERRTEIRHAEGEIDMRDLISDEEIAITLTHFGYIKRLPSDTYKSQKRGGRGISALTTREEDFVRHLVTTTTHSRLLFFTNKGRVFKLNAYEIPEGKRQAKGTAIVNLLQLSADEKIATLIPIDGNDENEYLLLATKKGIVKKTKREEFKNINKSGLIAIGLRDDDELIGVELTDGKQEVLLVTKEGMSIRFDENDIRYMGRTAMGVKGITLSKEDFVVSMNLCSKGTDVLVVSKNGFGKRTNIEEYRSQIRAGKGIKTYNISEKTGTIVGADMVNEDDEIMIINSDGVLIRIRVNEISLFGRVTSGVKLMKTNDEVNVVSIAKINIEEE
Sequence of DNA gyrase of C. difficile (Q18C89 entry or part of it): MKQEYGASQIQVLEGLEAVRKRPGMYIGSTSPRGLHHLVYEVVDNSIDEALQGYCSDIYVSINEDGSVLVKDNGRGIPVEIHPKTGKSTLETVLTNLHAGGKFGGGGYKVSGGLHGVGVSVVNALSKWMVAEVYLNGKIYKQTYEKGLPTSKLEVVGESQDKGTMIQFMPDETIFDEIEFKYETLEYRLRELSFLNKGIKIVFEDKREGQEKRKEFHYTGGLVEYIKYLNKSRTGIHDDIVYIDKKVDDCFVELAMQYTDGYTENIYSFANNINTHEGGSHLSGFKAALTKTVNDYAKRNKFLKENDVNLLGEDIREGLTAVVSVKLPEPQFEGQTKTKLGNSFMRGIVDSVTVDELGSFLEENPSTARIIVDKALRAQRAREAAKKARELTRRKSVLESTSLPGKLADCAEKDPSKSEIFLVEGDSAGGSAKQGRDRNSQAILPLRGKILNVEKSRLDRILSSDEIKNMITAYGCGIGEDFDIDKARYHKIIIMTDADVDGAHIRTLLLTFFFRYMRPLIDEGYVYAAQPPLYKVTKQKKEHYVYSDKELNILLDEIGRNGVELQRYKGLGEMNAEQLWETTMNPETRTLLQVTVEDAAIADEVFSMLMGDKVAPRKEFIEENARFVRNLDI

[14] = nonhypervirulent strains (n = 42)

Structure (SMILES): CCc1c(Cl)c(O)c(Cl)c(O)c1C(=O)O[C@H]1[C@H](O)[C@H](OC)[C@H](OC/C2=C\C=C\C[C@H](O)/C(C)=C/[C@H](CC)[C@@H](O[C@@H]3OC(C)(C)[C@@H](OC(=O)C(C)C)[C@H](O)[C@@H]3O)/C(C)=C/C(C)=C/C[C@@H]([C@@H](C)O)OC2=O)O[C@@H]1C [Fidaxomicin]
- Frequency of spontaneous resistance (C. difficile ATCC 700057 [1]; 4× MIC): 1.47 × 10^–7
- Frequency of spontaneous resistance (C. difficile ATCC 700057 [1]; 16× MIC): <9.17 × 10^–9
- Frequency of spontaneous resistance (C. difficile ATCC 700057 [1]; 64× MIC): <9.17 × 10^–9
- MIC (C. difficile ATCC 700057 [2]; ATCC700057, pH 6): 0.03 mg/L (≈ 0.0284 µM)
- MIC (C. difficile ATCC 700057 [2]; ATCC700057, pH 7): 0.06 mg/L (≈ 0.0567 µM)
- MIC (C. difficile ATCC 700057 [2]; ATCC700057, pH 8): 0.06 mg/L (≈ 0.0567 µM)
- MIC (C. difficile ATCC 700057 [3]; ATCC700057, broth dilution, retested for the time-kill assay): 0.03 mg/L (≈ 0.0284 µM)
- MIC (C. difficile ATCC 700057 [3]; ATCC700057, broth method, determined for the PAE assay): 0.06 mg/L (≈ 0.0567 µM)
- MIC (C. difficile ATCC 43255 [4]): 0.06 mg/L (≈ 0.0567 µM)
- MIC90 ([5]; all 62 strains): 0.25 mg/L (≈ 0.236 µM)
- MIC50 ([5]; hypervirulent strains (n = 20)): 0.25 mg/L (≈ 0.236 µM)
- MIC90 ([5]; hypervirulent strains (n = 20)): 0.25 mg/L (≈ 0.236 µM)
- MIC50 [5, 14]: 0.06 mg/L (≈ 0.0567 µM)
- MIC90 [5, 14]: 0.25 mg/L (≈ 0.236 µM)
- Cumulative percentage of strains ([5]; Hyp (n = 20), MIC 0.063 μg/ml): 0%
- Cumulative percentage of strains ([5]; Non-hyp (n = 42), MIC 0.008 μg/ml): 5%
- Cumulative percentage of strains ([5]; Non-hyp (n = 42), MIC 0.063 μg/ml): 52%
- Cumulative percentage of strains ([5]; Non-hyp (n = 42), MIC <0.004 μg/ml): 0%
- MIC range ([5]; hypervirulent strains (n = 20)): 0.125 to 0.5 mg/L
- MIC range [5, 14]: 0.008 to 0.5 mg/L
- mutant prevention concentration (MPC) (C. difficile ATCC 700057 [6]): 8 µg/mL
- MIC (C. difficile ATCC 700057 [7]; ATCC700057, agar dilution, determined for the spontaneous resistance assay): 0.06 mg/L (≈ 0.0567 µM)
- MIC (C. difficile ATCC 700057 [7]; ATCC700057, quality control strain ATCC 700057, CLSI method): 0.063 mg/L (≈ 0.0595 µM)
- PAEs at 4- and 8-fold the MIC (C. difficile ATCC 700057 [8]; 4- and 8-fold the MIC): 2.86 to 2.77 h
- Postantibiotic effect (C. difficile ATCC 700057 [8]; 4× MIC): 2.86 h
- Postantibiotic effect (C. difficile ATCC 700057 [8]; 8× MIC): 2.77 h
- MBC Range ([9]; >99.9% reduction within 48 h): 0.06 to 0.25 mg/L
- MIC range ([9]; broth dilution): 0.06 to 0.25 mg/L
- MIC90 ([9]; Clostridioides difficile, broth dilution, read-out: MIC90): 0.125 mg/L (≈ 0.118 µM)
- MBC ([9]; Clostridioides difficile, read-out: MBC90): 0.25 mg/L (≈ 0.236 µM)
- MIC90 [10]: 8 mg/L (≈ 7.56 µM)
- MIC50 [10]: 0.063 mg/L (≈ 0.0595 µM)
- 50% effective dose (ED50) (C. difficile ATCC 43255 [11]; survival on day 20, oral once daily for 5 days, probit method): 1.63 mg/kg/day
- dosages with significant efficacy compared with vehicle control (C. difficile ATCC 43255 [11]; survival, log-rank test): ≥ 1 mg/kg
- oral absorption [12]: minimally absorbed

Structure (SMILES): C[C@H]1COc2c(N3CCN(C)CC3)c(F)cc3c(=O)c(C(=O)O)cn1c23 [Levofloxacin]
- IC50 [13]: 31.8 µM
- activity against C. difficile isolates ([10]; 54 clinical isolates): inactive
- MIC90 [10]: > 128 mg/L
- MIC50 [10]: 128 mg/L (≈ 354 µM)
